Data: the NIST ThermoML archive (doi:10.1016/j.fluid.2016.02.035)
Numbers after ± are expanded uncertainties.

Test: mn = molality of the nth substance listed, in mol/kg
Details: 101 kPa, Liquid; for speed of sound: Sing-around technique in a fixed-path interferometer; for mass density: Vibrating tube method

CCCC[N+](CCCC)(CCCC)CCCC.[Br-] [tetrabutylammonium bromide] + O
Details	mass density, 308.15 K [kg/m3]	mass density, 313.15 K [kg/m3]	mass density, 318.15 K [kg/m3]	speed of sound, 308.15 K [m/s]	speed of sound, 313.15 K [m/s]	speed of sound, 318.15 K [m/s]
m1 = 0.0015	994.069 ± 0.11	992.252 ± 0.11	990.25 ± 0.11	1520.2 ± 1.2	1529.2 ± 1.2	1536.8 ± 1.2
m1 = 0.0047	994.133 ± 0.11	992.309 ± 0.11	990.268 ± 0.11	1520.9 ± 1.2	1529.9 ± 1.2	1537.4 ± 1.2
m1 = 0.0061	994.141 ± 0.11	992.322 ± 0.11	990.285 ± 0.11	1521.2 ± 1.2	1530.2 ± 1.2	1537.6 ± 1.2
m1 = 0.013	994.299 ± 0.11	992.471 ± 0.11	990.457 ± 0.11	1522.5 ± 1.2	1531.4 ± 1.2	1538.7 ± 1.2
m1 = 0.0183	994.411 ± 0.11	992.571 ± 0.11	990.535 ± 0.11	1523.7 ± 1.2	1532.4 ± 1.2	1539.7 ± 1.2
m1 = 0.026	994.559 ± 0.11	992.724 ± 0.11	990.703 ± 0.11	1525.1 ± 1.2	1533.8 ± 1.2	1540.9 ± 1.2
m1 = 0.031	994.67 ± 0.11	992.829 ± 0.11	990.802 ± 0.11	1526.1 ± 1.2	1534.7 ± 1.2	1541.8 ± 1.2
m1 = 0.0492	995.05 ± 0.11	993.186 ± 0.11	991.142 ± 0.11	1529.5 ± 1.2	1537.8 ± 1.2	1544.6 ± 1.2
m1 = 0.0796	995.683 ± 0.11	993.797 ± 0.11	991.727 ± 0.11	1535.4 ± 1.2	1543.2 ± 1.2	1549.6 ± 1.2
m1 = 0.0997	996.092 ± 0.11	994.191 ± 0.11	992.105 ± 0.11	1539.2 ± 1.2	1546.6 ± 1.2	1552.7 ± 1.2
m1 = 0.1118	996.35 ± 0.11	994.435 ± 0.11	992.338 ± 0.11	1541.5 ± 1.2	1548.8 ± 1.2	1554.6 ± 1.2
m1 = 0.1291	996.709 ± 0.11	994.777 ± 0.11	992.665 ± 0.11	1544.7 ± 1.2	1551.7 ± 1.2	1557.3 ± 1.2
m1 = 0.1464	997.075 ± 0.11	995.128 ± 0.11	992.999 ± 0.11	1547.8 ± 1.2	1554.6 ± 1.2	1559.9 ± 1.2
m1 = 0.1626	997.408 ± 0.11	995.446 ± 0.11	993.303 ± 0.11	1550.7 ± 1.2	1557.2 ± 1.2	1562.3 ± 1.2
m1 = 0.1952	998.092 ± 0.11	996.099 ± 0.11	993.923 ± 0.11	1556.3 ± 1.2	1562.3 ± 1.2	1567 ± 1.2
m1 = 0.2309	998.837 ± 0.12	996.807 ± 0.12	994.602 ± 0.12	1562.5 ± 1.2	1567.9 ± 1.2	1572 ± 1.2
m1 = 0.2732	999.711 ± 0.12	997.64 ± 0.12	995.396 ± 0.12	1569.5 ± 1.2	1574.3 ± 1.2	1577.8 ± 1.2
m1 = 0.3073	1000.41 ± 0.12	998.309 ± 0.12	996.027 ± 0.12	1574.9 ± 1.2	1579.2 ± 1.2	1582.3 ± 1.2
m1 = 0.3449	1001.16 ± 0.12	999.017 ± 0.12	996.7 ± 0.12	1580.8 ± 1.2	1584.5 ± 1.2	1587.1 ± 1.2
m1 = 0.5437	1005.11 ± 0.14	1002.75 ± 0.14	1000.24 ± 0.14	1608.6 ± 1.3	1609.5 ± 1.3	1609.2 ± 1.3
m1 = 0.7712	1009.28 ± 0.18	1006.68 ± 0.18	1003.95 ± 0.18	1634.4 ± 1.3	1632 ± 1.3	1629 ± 1.3
